In brackets after ≈: the same amount, converted by molar mass.
Columns and labels:
[1] = system: A549; test: Cytotoxicity against human A549 cells; type: functional; settings: read-out: ED50 (the source's name)
[2] = system: HT-29; test: Cytotoxicity against human HT-29 cells; type: functional; settings: read-out: ED50 (the source's name)
[3] = Cytotoxicity against human KBMRI cells; type: functional; settings: read-out: ED50 (the source's name)
[4] = system: Artemia; test: Toxicity in brine shrimp; type: organism-based; settings: in vivo
[5] = system: P388; test: In vivo cytotoxicity against mouse P388 cells relative to control; type: functional
[6] = system: Agrobacterium tumefaciens; test: Antitumor activity against Agrobacterium tumefaciens-induced crown gall tumors in potato tubers by potato disk test; type: functional

Compound | EC50 [1] | EC50 [2] | EC50 [3] | LC50 [4] | T/C [5] | inhibition (INH) [6]
Cc1cc2c(c(O)c1O)C(=O)c1c(O)cccc1C2=O | 3.1 µg/mL (≈ 11.5 µM) | 2.8 µg/mL (≈ 10.4 µM) | 5.7 µg/mL (≈ 21.1 µM) | – | – | –
COc1cc(O)c2c(c1)COC2=O | > 100 µg/mL | 28 µg/mL (≈ 155 µM) | > 100 µg/mL | > 1000 ppm | – | –
Cc1cc(O)c2c(c1)C(=O)c1cc(O)cc(O)c1C2=O [EMODIN] | 4.2 µg/mL (≈ 15.5 µM) | > 10 µg/mL | 6 µg/mL (≈ 22.2 µM) | 35 ppm | 127% | 40%
CC(=O)c1c(C)cc2cccc(O)c2c1O [NEPODIN] | 31 µg/mL (≈ 143 µM) | 36.7 µg/mL (≈ 170 µM) | 36.7 µg/mL (≈ 170 µM) | 105 ppm | – | –

Source: ChEMBL document CHEMBL1147291, “Bioactive compounds from the root of Myrsine africana” (J Nat Prod, 1989)
